The assay has as its system B. vulgaris plants comprising the BvALS_W569L allele. Put plainly: Sensitivity of Beta vulgaris plants to ALS inhibitor herbicide (BvALS_W569L allele vs wild type allele). Type of assay: in vivo.

On to `COc1cc(OC)nc(NC(=O)NS(=O)(=O)c2cc(NC=O)ccc2C(=O)N(C)C)n1` [foramsulfuron], for which the “times less sensitive to the ALS inhibitor herbicide compared to B. vulgaris plants comprising a BvALS wild type allele” value was “at least 2000 times”.

These data come from patent US20240389528A1, “PERFORMANCE GAIN IN ALS INHIBITOR HERBICIDE TOLERANT BETA VULGARIS PLANTS BY COMBINATION OF BEST FITTING ALS LARGE AND SMALL SUBUNITS” (BAYER AKTIENGESELLSCHAFT, priority 2021, published 2024).
